# Measured values from US20240226066A1, “CARDIOPROTECTION BY AUTOPHAGY INDUCTION AND METABOLIC REPROGRAMMING” (UNIVERSITE PARIS-SACLAY, priority 2021, published 2024).
# Read-outs that look alike come from different tables or passages of the source.
# Tests used:
# DRP-1 = experiment: Western blot of DRP-1 phosphorylation (Ser616) in RNVCs; type: cell-based, rat
# Procedure: FIG. 6D: Drp-1 and P-Drp-1 and MFN2 protein levels in RNVCs analyzed by western blotting. *, p<0.05, **, p<0.01, ***, p<0.001 with respect to DMSO. The experiments were reproduced 3 times. Representative western blotting images and quantification of three independent experiments are presented as mean±SEM with single-factor ANOVA, and multiple Sidak comparisons.
# (§1) The H9C2 cells and RNVCs were detached in LB containing: 50 mM Tris, 150 mM NaCl, 1 mM EDTA, 0.5% deoxycholate, 1% Triton X 100, 0.1% SDS (pH 8.0). The cells were collected and placed on ice for 30 minutes. The cells were then centrifuged at 2000 g for 20 minutes at for 4° C. The supernatant was transferred to a new tube and stored on ice. The protein concentration was determined by BCA assay. The protein samples were diluted with sample buffer (2× Laemmli, Sigma), mixed, and heated for 5 minutes at 95° C. […] The images were recorded with a gel imaging system (Bio Rad). […]
# (§2) Due to the importance of mitochondria and reactive oxygen species (ROS) levels in the fate of cardiomyocyte cells, the hypothesis that the compounds could impact the mitochondrial network was explored. […] Thus, the mitochondrial network and the individual mitochondria were then analyzed using the IMARIS software.
# MFN1 = experiment: Western blot of MFN1 in RNVCs; type: cell-based, rat
# Procedure: FIG. 6C: MFN1 and MFN2 protein levels in RNVCs analyzed by western blotting.
# as §1, §2
# H9C2 cells [1] = experiment: Exogenous fatty acid oxidation (XF palmitate-BSA FAO substrate with mito stress test); type: cell-based, rat; conditions: fatty acids as substrate
# Procedure: FIG. 8C: the oxidation of the exogenous fatty acids was measured simultaneously using the XF palmitate-BSA FAO substrate kit with the mito stress test on XF cells. Before starting the test, 30 μL of XF palmitate-BSA CAM or BSA control substrate were added to the appropriate wells.
# The XFe96 extracellular flow analyzer (Seahorse Biosciences, North Billerica, MA, USA) was used to measure the bioenergetic function of H9C2 cardiomyocytes. The H9C2 cells were seeded at 20 000 cells per well in XF96 cell culture microplates; all the pretreatments were carried out with serum-free cell culture medium. The Agilent Seahorse XF glycolysis stress test was performed to measure glycolytic function in the H9C2 cells; the extracellular acidification rate (ECAR) was measured sequentially by 3 injections, 10 mM glucose, 2 μM oligomycin and 50 mM 2-deoxy-D-glucose (2-DG). The Agilent Seahorse XF Cell Mito stress test measured key parameters of mitochondrial function by directly measuring the oxygen consumption rate (OCR) of the H9C2 cells. […] The oxidation of the exogenous fatty acids was measured simultaneously using the XF palmitate-BSA FAO substrate kit with the mitochondrial stress test on XF cells. […]
# (§3) Next, the energy metabolism was analyzed in real time using the Seahorse technology in H9C2 cells.
# H9C2 cells [2] = experiment: Seahorse XF Cell Mito stress test (OCR); type: cell-based, rat
# Procedure: FIG. 8B: the H9c2 cells were treated with the compounds for 6 h, then a mitochondrial respiration stress test was carried out.
# The XFe96 extracellular flow analyzer (Seahorse Biosciences, North Billerica, MA, USA) was used to measure the bioenergetic function of H9C2 cardiomyocytes. The H9C2 cells were seeded at 20 000 cells per well in XF96 cell culture microplates; all the pretreatments were carried out with serum-free cell culture medium. The Agilent Seahorse XF glycolysis stress test was performed to measure glycolytic function in the H9C2 cells; the extracellular acidification rate (ECAR) was measured sequentially by 3 injections, 10 mM glucose, 2 μM oligomycin and 50 mM 2-deoxy-D-glucose (2-DG). The Agilent Seahorse XF Cell Mito stress test measured key parameters of mitochondrial function by directly measuring the oxygen consumption rate (OCR) of the H9C2 cells. The test used the built-in injection ports on XF sensor cartridges to add respiration modulators into the cell well during the test in order to reveal key parameters of mitochondrial function. Oligomycin at 2 μM was injected first after the baseline measurements. Then 1 μM of […] (FCCP) was injected. The third injection corresponds to 0.5 μM of antimycin A, to stop mitochondrial respiration. The oxidation of the exogenous fatty acids was measured simultaneously using the XF palmitate-BSA FAO substrate kit with the mitochondrial stress test on XF cells. The substrate-limited medium is DMEM with 0.5 mM glucose, 1 mM GlutaMAX, 0.5 mM carnitine and 1% fetal calf serum. Carnitine was added freshly on the day of the change of medium. The FAO test medium contains 111 mM NaCl, 4.7 mM KCl, 1.25 mM CaCl2, 2 mM MgSO4, 1.2 mM NaH2PO4, supplemented with 2.5 mM glucose, 0.5 mM carnitine and 5 mM HEPES on the day of the test, adjusted to pH 7.4 at 37° C. The H9C2 cells were seeded at 20 000 cells per well in XF96 cell culture microplates. […]
# as §3
# hERG potassium channel = biological target: T1, hERG potassium channel (Homo sapiens, UniProt Q12809); experiment: hERG channel binding assay ([3H]dofetilide displacement); conditions: for inhibition at 10 µM: human, probe [3H]dofetilide
# T1 construct: Eurofins
# T1 sequence (Q12809 whole entry): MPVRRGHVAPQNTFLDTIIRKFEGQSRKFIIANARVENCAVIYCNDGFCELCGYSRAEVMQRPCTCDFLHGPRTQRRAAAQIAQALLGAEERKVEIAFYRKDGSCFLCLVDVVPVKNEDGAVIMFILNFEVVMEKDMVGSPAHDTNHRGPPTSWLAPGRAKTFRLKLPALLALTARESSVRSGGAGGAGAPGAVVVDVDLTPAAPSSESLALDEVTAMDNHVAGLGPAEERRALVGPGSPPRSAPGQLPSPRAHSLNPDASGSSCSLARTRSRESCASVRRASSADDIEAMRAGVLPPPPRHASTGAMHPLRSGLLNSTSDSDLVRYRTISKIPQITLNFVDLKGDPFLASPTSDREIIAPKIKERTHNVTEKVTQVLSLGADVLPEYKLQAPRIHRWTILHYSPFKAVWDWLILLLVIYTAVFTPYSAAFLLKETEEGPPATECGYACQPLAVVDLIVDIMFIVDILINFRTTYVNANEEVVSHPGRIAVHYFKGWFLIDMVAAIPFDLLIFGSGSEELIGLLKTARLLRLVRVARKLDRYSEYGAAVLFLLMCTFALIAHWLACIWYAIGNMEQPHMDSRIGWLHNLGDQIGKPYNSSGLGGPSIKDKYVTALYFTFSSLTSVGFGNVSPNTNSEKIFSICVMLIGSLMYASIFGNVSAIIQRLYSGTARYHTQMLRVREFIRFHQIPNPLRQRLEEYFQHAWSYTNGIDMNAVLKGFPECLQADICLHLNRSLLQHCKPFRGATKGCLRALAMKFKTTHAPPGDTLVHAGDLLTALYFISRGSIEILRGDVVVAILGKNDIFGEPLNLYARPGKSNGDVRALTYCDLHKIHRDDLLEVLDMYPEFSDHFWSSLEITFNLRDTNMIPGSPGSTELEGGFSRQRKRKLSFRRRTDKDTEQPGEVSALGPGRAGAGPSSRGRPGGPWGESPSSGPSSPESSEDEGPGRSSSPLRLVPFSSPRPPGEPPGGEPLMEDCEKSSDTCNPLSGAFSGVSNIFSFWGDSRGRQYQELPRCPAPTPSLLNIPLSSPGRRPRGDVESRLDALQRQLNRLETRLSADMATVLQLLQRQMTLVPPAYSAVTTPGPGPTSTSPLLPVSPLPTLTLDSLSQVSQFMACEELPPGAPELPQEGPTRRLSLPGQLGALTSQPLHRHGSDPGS
# Procedure: The evaluation of the binding of the compounds to the human hERG potassium channel was carried out as described previously (Eurofins).
# Since the blocking of the human potassium channel hERG channel may be responsible for cardiac fibrillation leading to cardiac arrest and death of the patient, the binding of the 3 molecules SG6163F, VP331 and LOPA87 to this receptor was evaluated.
Compound,"phosphorylation of DRP-1 at Ser616, (DRP1-P)/(DRP-1 total) ratio (DRP-1)",expression of fusion protein MFN1 (MFN1),oxidative phosphorylation (H9C2 cells [1]),"ATP production by oxidative phosphorylation (OXPHOS) (H9C2 cells [2]; glucose and pyruvate as substrates, 6 h)","inhibition at 10 µM (hERG potassium channel; inhibition of tritiated dofetilide binding, only values >50% considered effective, read-out: % inhibit 1st assay) [%]","inhibition at 10 µM (hERG potassium channel; inhibition of tritiated dofetilide binding, only values >50% considered effective, read-out: % inhibit 2nd assay) [%]","inhibition at 10 µM (hERG potassium channel; mean of two independent measurements, read-out: % inhibit Mean) [%]",binding to the hERG channel (hERG potassium channel; inhibition of specific binding of [3H]dofetilide in vitro),OXPHOS (H9C2 cells [2]; independently of the substrates)
C[C@H]1O[C@@H](O[C@H]2[C@@H](O)C[C@H](O[C@H]3[C@@H](O)CC(O[C@H]4CC[C@@]5(C)[C@H](CC[C@@H]6[C@@H]5C[C@@H](O)[C@]5(C)[C@@H](C7=CC(=O)OC7)CC[C@]65O)C4)O[C@@H]3C)O[C@@H]2C)C[C@H](O)[C@@H]1O (some centres unmarked) [digoxin],stimulated fission by phosphorylation of DRP-1,decreased,improved oxidative phosphorylation,,,,,,
C[C@]12CC[C@H](O)C[C@H]1CC[C@@H]1[C@@H]2CC[C@]2(C)[C@@H](C3=CC(=O)OC3)CC[C@]12O [digitoxigenin],,decreased,,improved ATP production by oxidative phosphorylation,,,,,
O=C1NC(c2ccccc2)=N/C1=C\c1cc2ccccc2c2ccccc12 [SG6163F],stimulated fission by phosphorylation of DRP-1,,,,40.5,36.6,38.5,negligible,boost OXPHOS
